IC50 data for 22 molecules are collected here from patent US20160376240A1, “6 Phenyl or 6 Pyridin 3 YL Indazole Derivatives and Methods of Use” (ABBVIE INC., priority 2014, published 2016).

This experiment addresses T1, TrkA (Homo sapiens, UniProt P04629).
T1 construct: purchased Invitrogen PV3144
Briefly: TrkA kinase inhibition, HTRF assay. It is filed as biochemical. The following applies: LCK peptide substrate 125 nM, TrkA 2-10 nM pre-incubated with ATP 200 μM. The procedure, abridged: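 TrkA (2-10 nM) preactivated 20 min with 200 μM ATP in HEPES pH 7.4 with Mg2+/Mn2+, then compound for 10 min, then 125 nM biotinylated LCK-peptide for 1 h at ambient temperature. HTRF 665/620 ratio read; IC50 fitted from initial-rate percent inhibition.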
In general terms: TR-FRET usually uses a lanthanide donor and a delayed reading to cut background.

T1 sequence (P04629 33-796): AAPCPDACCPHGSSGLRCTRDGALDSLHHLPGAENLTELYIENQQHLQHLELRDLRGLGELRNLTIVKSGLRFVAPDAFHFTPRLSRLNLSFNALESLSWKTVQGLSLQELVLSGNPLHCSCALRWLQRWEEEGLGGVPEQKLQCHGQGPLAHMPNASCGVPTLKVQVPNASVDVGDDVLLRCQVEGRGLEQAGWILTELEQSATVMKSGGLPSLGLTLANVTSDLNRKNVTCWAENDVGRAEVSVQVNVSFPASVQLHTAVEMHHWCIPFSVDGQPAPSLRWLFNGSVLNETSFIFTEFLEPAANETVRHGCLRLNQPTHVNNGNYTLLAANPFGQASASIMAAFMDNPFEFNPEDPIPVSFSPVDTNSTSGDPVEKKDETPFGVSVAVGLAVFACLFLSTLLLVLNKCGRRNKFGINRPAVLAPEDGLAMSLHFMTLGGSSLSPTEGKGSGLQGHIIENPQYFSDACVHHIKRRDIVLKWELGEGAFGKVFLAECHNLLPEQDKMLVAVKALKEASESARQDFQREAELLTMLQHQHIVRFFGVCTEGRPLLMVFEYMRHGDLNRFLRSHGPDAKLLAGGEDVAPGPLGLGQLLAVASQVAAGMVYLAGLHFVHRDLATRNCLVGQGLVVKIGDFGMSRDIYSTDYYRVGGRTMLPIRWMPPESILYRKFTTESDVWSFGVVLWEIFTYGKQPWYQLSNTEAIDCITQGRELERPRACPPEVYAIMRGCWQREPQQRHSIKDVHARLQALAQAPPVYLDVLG

The molecule `CC(Oc1cc(-c2ccc(C(N)=O)c(N3CCN(C4CCCCC4)CC3)c2)cc2[nH]nc(N)c12)C(F)(F)F` (stereo not shown) [Example 93, 4-{3-amino-4-[(1,1,1-trifluoropropan-2-yl)oxy]-1H-indazol-6-yl}-2-(4-cyclohexylpiperazin-1-yl)benzamide] displayed an IC50 of 27 nM. That is a double-digit nanomolar value. The same measure for `CC(Oc1cc(-c2ccc(C(N)=O)c(N3CCN(c4ccccn4)CC3)c2)cc2[nH]nc(N)c12)C(F)(F)F` (stereo not shown) [Example 94, 4-{3-amino-4-[(1,1,1-trifluoropropan-2-yl)oxy]-1H-indazol-6-yl}-2-[4-(pyridin-2-yl)piperazin-1-yl]benzamide]: 2.41 nM; for `CC(Oc1cc(-c2ccc(C(N)=O)c(N3CCN(CCN4CCOCC4)CC3)c2)cc2[nH]nc(N)c12)C(F)(F)F` (stereo not shown) [Example 95, 4-{3-amino-4-[(1,1,1-trifluoropropan-2-yl)oxy]-1H-indazol-6-yl}-2-{4-[2-(morpholin-4-yl)ethyl]piperazin-1-yl}benzamide]: 89.8 nM; for `CC(=O)N1CCN(c2cc(-c3cc(OC(C)C(F)(F)F)c4c(N)n[nH]c4c3)ccc2C(N)=O)CC1` (stereo not shown) [Example 96, 2-(4-acetylpiperazin-1-yl)-4-{3-amino-4-[(1,1,1-trifluoropropan-2-yl)oxy]-1H-indazol-6-yl}benzamide]: 89.2 nM. Next, `CC(Oc1cc(-c2ccc(C(N)=O)c(N3CCN(C4CC4)CC3)c2)cc2[nH]nc(N)c12)C(F)(F)F` (stereo not shown) [Example 97, 4-{3-amino-4-[(1,1,1-trifluoropropan-2-yl)oxy]-1H-indazol-6-yl}-2-(4-cyclopropylpiperazin-1-yl)benzamide]: 27.3 nM. Molecule `CC(Oc1cc(-c2ccc(C(N)=O)c(N3CCN(c4ccncc4)CC3)c2)cc2[nH]nc(N)c12)C(F)(F)F` (stereo not shown) [Example 98, 4-{3-amino-4-[(1,1,1-trifluoropropan-2-yl)oxy]-1H-indazol-6-yl}-2-[4-(pyridin-4-yl)piperazin-1-yl]benzamide] returned a concentration for half-maximal inhibition (IC50) of 539 nM. The same measure for `CC(Oc1cc(-c2ccc(C(N)=O)c(N3C[C@H]4CN(Cc5ccccc5)C[C@H]4C3)c2)cc2[nH]nc(N)c12)C(F)(F)F` (stereo partly drawn) [Example 99, 4-{3-amino-4-[(1,1,1-trifluoropropan-2-yl)oxy]-1H-indazol-6-yl}-2-[(3aR*,6aS*)-5-benzylhexahydropyrrolo[3,4-c]pyrrol-2(1H)-yl]benzamide]: 852 nM; for `CC(Oc1cc(-c2ccc(C(N)=O)c(N3CCN(CCC(C)(C)C)CC3)c2)cc2[nH]nc(N)c12)C(F)(F)F` (stereo not shown) [Example 100, 4-{3-amino-4-[(1,1,1-trifluoropropan-2-yl)oxy]-1H-indazol-6-yl}-2-[4-(3,3-dimethylbutyl)piperazin-1-yl]benzamide]: 4.98 nM.

The molecule `CC(Oc1cc(-c2ccc(C(N)=O)c(N3CCN(C(=O)C4CC4)CC3)c2)cc2[nH]nc(N)c12)C(F)(F)F` (stereo not shown) [Example 103, 4-{3-amino-4-[(1,1,1-trifluoropropan-2-yl)oxy]-1H-indazol-6-yl}-2-[4-(cyclopropylcarbonyl)piperazin-1-yl]benzamide] had an IC50 of 19.4 nM. This IC50 lies about 3.9-fold higher than the previous one. `CC(Oc1cc(-c2ccc(C(N)=O)c(N3CCN(C(=O)C(C)(C)C)CC3)c2)cc2[nH]nc(N)c12)C(F)(F)F` (stereo not shown) [Example 104, 4-{3-amino-4-[(1,1,1-trifluoropropan-2-yl)oxy]-1H-indazol-6-yl}-2-[4-(2,2-dimethylpropanoyl)piperazin-1-yl]benzamide] showed an IC50 of 14 nM.

`CNC(=O)c1ccc(-c2cc(O[C@H](C)C(F)(F)F)c3c(N)n[nH]c3c2)cc1OCCOC1CCCCC1` [Example 105, 4-(3-amino-4-{[(2R)-1,1,1-trifluoropropan-2-yl]oxy}-1H-indazol-6-yl)-2-[2-(cyclohexyloxy)ethoxy]-N-methylbenzamide] showed an IC50 of 3.23 nM. In the case of `CNC(=O)c1ccc(-c2cc(O[C@H](C)C(F)(F)F)c3c(N)n[nH]c3c2)cc1OCCOc1ccccc1` [Example 106, 4-(3-amino-4-{[(2R)-1,1,1-trifluoropropan-2-yl]oxy}-1H-indazol-6-yl)-N-methyl-2-(2-phenoxyethoxy)benzamide], the IC50 was 2.67 nM.

As to `NC(=O)c1ccc(-c2cc(OC3CCCC3)c3c(N)n[nH]c3c2)cc1N1CCN(CC(=O)N2CCCCC2)CC1` [Example 107, 4-[3-amino-4-(cyclopentyloxy)-1H-indazol-6-yl]-2-{4-[2-oxo-2-(piperidin-1-yl)ethyl]piperazin-1-yl}benzamide], half-maximal inhibition (IC50) was put at 44 nM. Regarding `CNC(=O)c1ccc(-c2cc(OC3CCOCC3)c3c(N)n[nH]c3c2)cc1N1CCN(C(=O)OC(C)(C)C)CC1` [Example 111, tert-butyl 4-{5-[3-amino-4-(tetrahydro-2H-pyran-4-yloxy)-1H-indazol-6-yl]-2-(methylcarbamoyl)phenyl}piperazine-1-carboxylate], half-maximal inhibition (IC50) required 26.8 nM. Regarding `CNC(=O)c1ccc(-c2cc(OC3CCOCC3)c3c(N)n[nH]c3c2)cc1N1CCNCC1` [Example 112, 4-[3-amino-4-(tetrahydro-2H-pyran-4-yloxy)-1H-indazol-6-yl]-N-methyl-2-(piperazin-1-yl)benzamide], it took 7.11 nM to reach half-maximal inhibition (IC50). This IC50 lies about 3.8-fold lower than the previous one. Molecule `CNC(=O)c1ccc(-c2cc(OC3CCOCC3)c3c(N)n[nH]c3c2)cc1N1CCN(C(=O)OC(C)C)CC1` [Example 114, isopropyl 4-{5-[3-amino-4-(tetrahydro-2H-pyran-4-yloxy)-1H-indazol-6-yl]-2-(methylcarbamoyl)phenyl}piperazine-1-carboxylate] returned an IC50 of 80.8 nM. Next, `CCNC(=O)c1ccc(-c2cc(OC3CCOCC3)c3c(C)n[nH]c3c2)cc1N1CCN(c2ccccc2)CC1` [Example 115, N-ethyl-4-[3-methyl-4-(tetrahydro-2H-pyran-4-yloxy)-1H-indazol-6-yl]-2-(4-phenylpiperazin-1-yl)benzamide]: 32.8 nM; `CNC(=O)c1ccc(-c2cc(OC3CCOCC3)c3cn[nH]c3c2)cc1N1CCN(C2CCCCC2)CC1` [Example 116, 2-(4-cyclohexylpiperazin-1-yl)-N-methyl-4-[4-(tetrahydro-2H-pyran-4-yloxy)-1H-indazol-6-yl]benzamide]: 77.8 nM. Take `Cc1n[nH]c2cc(-c3ccc(C(=O)NC4CC4)c(N4CCN(c5ccccc5)CC4)c3)cc(OC3CCOCC3)c12` [Example 117, N-cyclopropyl-4-[3-methyl-4-(tetrahydro-2H-pyran-4-yloxy)-1H-indazol-6-yl]-2-(4-phenylpiperazin-1-yl)benzamide]: the midpoint of inhibition, the IC50, lay at 17.7 nM.

In the case of `Cc1n[nH]c2cc(-c3ccc(C(=O)NC4CCC4)c(N4CCN(C5CCCCC5)CC4)c3)cc(OC3CCOCC3)c12` [Example 118, N-cyclobutyl-2-(4-cyclohexylpiperazin-1-yl)-4-[3-methyl-4-(tetrahydro-2H-pyran-4-yloxy)-1H-indazol-6-yl]benzamide], half-maximal inhibition (IC50) required 39.8 nM.

Take `CC(=O)Nc1ccc(-c2cc(OC3CCOCC3)c3c(C)n[nH]c3c2)cc1N1CCN(C2CCCCC2)CC1` [Example 119, N-{2-(4-cyclohexylpiperazin-1-yl)-4-[3-methyl-4-(tetrahydro-2H-pyran-4-yloxy)-1H-indazol-6-yl]phenyl}acetamide]: the IC50 was determined as 31.1 nM. As for `CCNC(=O)c1ccc(-c2cc(OC3CCCC3)c3cn[nH]c3c2)cc1N1CCN(c2ccccc2)CC1` [Example 120, 4-[4-(cyclopentyloxy)-1H-indazol-6-yl]-N-ethyl-2-(4-phenylpiperazin-1-yl)benzamide], the IC50 was found to be 82.5 nM.

The IC50 is the midpoint of a concentration-inhibition curve.
